Source: patent US3974281A, “5-Methyl-1-phenyl-2-(1H)-pyridone compositions and methods of use” (priority 1974, dated 1976)

Tests used:
[1] = system: rabbit eye (conjunctival sac); design: species or system albino rabbits of the New Zealand strain; details: in vivo
Procedure: six male albino rabbits of the New Zealand strain were incorporated in this study. A dosage of 0.1 ml. of AMR-69-62 (2% Aqueous Solution) was introduced into the conjunctival sac of the left eye of each rabbit; the right eye served as an untreated control. The six treated rabbit eyes were scored against the corresponding untreated control eyes according to the method of Draize (Draize, J.H., in Appraisal of the Safety of Chemicals in Foods, Drugs and Cosmetics, Assoc. of Food and Drug Officials of U.S., Austin, Tex., 1959) at 0.5 minutes, 30 minutes and 3.0 hours after administration of AMR-69.

[2] = system: edema (swelling), experimental inflammation in the hind limb of rats; assay: Anti-inflammatory activity, reduction of edema of experimentally inflamed hind limb; assay type: in vivo, albino rats; details: oral
Procedure: anti-inflammatory activity was assayed by the method described by Margolin (ibid.) utilizing albino rats. The anti-inflammatory bio-assay basis is the ability to reduce the edema (swelling) when an experimental inflammation is induced in the hind limb of the rats.

[3] = system: mucous linings of the respiratory system; assay: Clinical trials on humans with sinusitis, post-nasal drip, rhinitis, conjunctivitis, headache, earache, sore throat; assay type: in vivo, human; details: oral capsule, approximately 400 mg. per capsule

Cc1ccc(=O)n(-c2ccccc2)c1 [AMR-69, 5-methyl-1-phenyl-2-(1H)-pyridone]
Draize evaluation of eye irritation [1]: would not be considered as an irritant to the eye | group mean Draize score at 0.5 minutes [1]: 2.0 | group mean Draize score at 30 minutes [1]: 0.0 | group mean Draize score at 3.0 hours [1]: 0.0 | ED50 ([2]; Rattus norvegicus, read-out: oral median effective dose (ED50), anti-inflammatory): 200 ± 46 mg/kg | onset of the anti-inflammatory therapeutic effect ([2]; vs aminopyrine): more rapid onset of the therapeutic effect | noxious effect of acute and chronic infections of the nasopharynx, cranial sinuses [3]: arrested and relieved
